Measurements as given in patent US11518758B2, “Heteroarylaminopyrimidine amide autophagy inhibitors and methods of use thereof” (Deciphera Pharmaceuticals, LLC, priority 2019, dated 2022).

Columns and labels:
[1] = molecular target: T1, ULK2 kinase (Homo sapiens, UniProt Q8IYT8); experiment: Biochemical assay for ULK2 (coupled pyruvate kinase/lactate dehydrogenase assay); details: 9.7 nM ULK2 (Eurofins), myelin basic protein, 1 mM ATP; read-out: ULK2.2
T1 construct: purchased Eurofins 14-772
Description: Example 176. Biochemical Assay for ULK2
Activity of ULK2 kinase was determined spectroscopically using a coupled pyruvate kinase/lactate dehydrogenase assay that continuously monitors the ATP hydrolysis-dependent oxidation of NADH (e.g., Schindler et al. Science (2000) 289: 1938-1942). Assays were conducted in 384-well plates (100 uL final volume) using 9.7 nM ULK2 (Eurofins CAT #14-772), 0.25 mg/mL myelin basic protein, 1.5 units pyruvate kinase, 2.1 units lactate dehydrogenase, 1 mM phosphoenol pyruvate, 0.28 mM NADH and 1 mM ATP in assay buffer (100 mM Tris, pH 7.5, 15 mM MgCl2, 0.5 mM DTT, 0.1% octyl-glucoside, 0.002% (w/v) BSA, and 0.002% Triton X-100). Inhibition of ULK2 was measured by adding serial diluted test compound (final assay concentration of 1% DMSO). A decrease in absorption at 340 nm was monitored continuously for 6 hours at 30° C. on a multi-mode microplate reader (BioTek). The reaction rate was calculated using the 2-3 h time frame. The reaction rate at each concentration of compound was converted to percent inhibition using controls (i.e. reaction with no test compound and reaction with a known inhibitor) and IC50 values were calculated by fitting a four-parameter sigmoidal curve to the data using Prism (GraphPad software).

[2] = test system: phospho-Serine 318 ATG13 (pATG13), ULK kinase substrate, in A549 (KRAS mutant) cells; experiment: pATG13 levels of mutant KRas A549 cells after treatment with ULK inhibitors in combination with trametinib (ELISA); format: cell-based, human; details: with 250 nM trametinib
Method in brief: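 A549 cells grown overnight were treated overnight at 37 °C with a dose response of test compound plus 250 nM trametinib (final) or DMSO. Lysates were assayed by sandwich ELISA, with total ATG13 capture and biotinylated pS318-ATG13 detection read at 450 nm minus 540 nm, giving % phosphorylation against control and IC50.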

[3] = test system: phospho-Serine 318 ATG13 (pATG13) in HCT-116 cells; experiment: pATG13 levels of mutant KRas HCT-116 cells after treatment with ULK inhibitors in combination with trametinib (ELISA); format: cell-based, human
Description: Example 179. pATG13 Levels of Mutant KRas HCT-116 Cells after Treatment with ULK Inhibitors in Combination with Trametinib
HCT-116 human colon cancer cells (10000 cells/well) were added to a 384-well tissue-culture treated plate in 50 μL of pre-warmed DMEM medium supplemented with 10% characterized fetal bovine serum (Invitrogen, Carlsbad, Calif.), 100 units/mL penicillin G, and 100 μg/mL streptomycin and allowed to grow overnight at 37° C., 5% CO2, and 95% humidity. The following day, 10 μL of media containing trametinib or DMSO as a control was added to wells. The final concentration of trametinib in wells was 250 nM. A dose response of a test compound (0.6 μL per well) was added. DMSO (0.6 μL) was added to control wells. The plate was briefly shaken to mix wells and then incubated at 37° C. overnight. The next day, the media was aspirated and cells were washed with Dulbecco's Phosphate Buffered Saline (Gibco). Cells were lysed using MPER lysis buffer (Pierce, Rockford, Ill.) containing Halt Phosphatase and Protease Inhibitors (Pierce, Rockford, Ill.) and Phosphatase inhibitor cocktail 2 (Sigma, St. Louis, Mo.) at 4° C. for 10 minutes with shaking.
Cellular levels of phospho-Serine 318 ATG13 (pATG13) were measured via an ELISA method. Total ATG13 Antibody (Cell Signaling Cat #13273) was used to coat the wells. The plate was incubated at 4° C. overnight and washed with ELISA wash buffer (Biolegend Cat #421601). The wells were then blocked with assay diluent (Biolegend Cat #421203) for 1 hour at room temperature. Plate wells were washed with ELISA wash buffer. Cell lysate was added to wells and incubated at room temperature for 2 hours. Plate wells were washed with ELISA wash buffer. Biotinylated pS318-ATG13 antibody (Rockland Immunochemicals Cat #600-401-C49) was diluted in assay diluent and added to each well and incubated at room temperature for 1 hour. Plate wells were washed with ELISA wash buffer. Streptavidin linked to horseradish peroxidase (Thermo Fisher Cat #21140) was diluted in assay diluent and added to each well and incubated at room temperature for 1 hour. Plate wells were washed with ELISA wash buffer. High sensitivity TMB substrate (Biolegend Cat #421101) was added to each well and incubated at room temperature for 20 minutes. The reaction was stopped with 2N Sulfuric Acid. The plate was analyzed at on a plate reader measuring absorbance at 450 nm and 540 nm (background). Signal was calculated by first subtracting the background absorbance at 540 nm from the absorbance at 450 nm for each well. Next, the background corrected absorbance at 450 nm from blank wells was subtracted from test wells. Data was compared to control wells to determine % ATG13 phosphorylation. GraphPad Prism was used to calculate IC50 values.

T1 sequence (Q8IYT8 with tags, fused parts or gaps): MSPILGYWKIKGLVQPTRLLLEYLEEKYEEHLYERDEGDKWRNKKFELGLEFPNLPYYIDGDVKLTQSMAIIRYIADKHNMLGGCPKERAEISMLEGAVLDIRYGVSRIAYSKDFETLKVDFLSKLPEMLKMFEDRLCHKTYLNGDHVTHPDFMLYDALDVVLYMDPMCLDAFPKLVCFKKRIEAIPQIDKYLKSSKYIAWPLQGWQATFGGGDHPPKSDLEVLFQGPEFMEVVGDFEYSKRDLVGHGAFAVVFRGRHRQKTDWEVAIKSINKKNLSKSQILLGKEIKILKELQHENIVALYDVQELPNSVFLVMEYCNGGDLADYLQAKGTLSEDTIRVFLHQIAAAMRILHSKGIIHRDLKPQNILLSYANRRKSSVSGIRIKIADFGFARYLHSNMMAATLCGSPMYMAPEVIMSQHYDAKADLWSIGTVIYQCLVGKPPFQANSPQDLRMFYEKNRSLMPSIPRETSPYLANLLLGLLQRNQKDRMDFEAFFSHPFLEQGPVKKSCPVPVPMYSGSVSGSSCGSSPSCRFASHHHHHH

Work on CN(C)CCn1cc(Nc2ncc(C(F)(F)F)c(NCCCN3CCCCC3=O)n2)cn1 [Example 32] yielded an IC50 [1] of 100 to 500 nM, an IC50 [2] of 100 to 300 nM and an IC50 [3] of 10 to 100 nM.

With Cc1nn(CCCN2CCOCC2)cc1Nc1ncc(C(F)(F)F)c(NCCCN2CCCCCC2=O)n1 [Example 100] the IC50 [1] was 100 to 500 nM, the IC50 [2] was 100 to 300 nM and the IC50 [3] was 100 to 300 nM.

In the case of CC(C)N1CCC(n2cc(Nc3ncc(C(F)(F)F)c(NCCCN4CCCCC4=O)n3)cn2)CC1 [Example 6], the IC50 [1] is reported as 25 to 100 nM, the IC50 [2] is reported as 10 to 100 nM and the IC50 [3] is reported as 100 to 300 nM.

Work on Cc1nn(C2CCN(C(C)C)CC2)cc1Nc1ncc(C(F)(F)F)c(NCCCN2CCCOCC2=O)n1 [Example 108] yielded an IC50 [1] of over 500 nM, an IC50 [2] of 300 to 600 nM and an IC50 [3] of 100 to 300 nM.

Work on Cc1nn(C2CCN(C)CC2)cc1Nc1ncc(C(F)(F)F)c(NCCCN2CCCOCC2=O)n1 [Example 102] yielded an IC50 [1] of 25 to 100 nM, an IC50 [2] of 100 to 300 nM and an IC50 [3] of 10 to 100 nM.

With Cc1nn(C2CCN(C)CC2)cc1Nc1ncc(Cl)c(NCCCN2CCCOCC2=O)n1 [Example 105] the IC50 [1] was over 500 nM, the IC50 [2] was over 600 nM and the IC50 [3] was 100 to 300 nM.

For Cc1nn(C2CCN(C)CC2)cc1Nc1ncc(C(F)(F)F)c(NCCCN2CCCCCC2=O)n1 [Example 79], the IC50 [1] was 1 to 25 nM, the IC50 [2] was 10 to 100 nM and the IC50 [3] was 10 to 100 nM.

Molecule Cc1nn(C2CCN(C)CC2)cc1Nc1ncc(C(F)(F)F)c(NCCCN2CCOCCC2=O)n1 [Example 127] has an IC50 [1] of 100 to 500 nM, an IC50 [2] of 100 to 300 nM and an IC50 [3] of 100 to 300 nM.

Molecule Cc1nn([C@@H]2CCN(C)C2)cc1Nc1ncc(C(F)(F)F)c(NCCCN2CCCCC2=O)n1 [Example 18] has an IC50 [1] of 25 to 100 nM and an IC50 [2] of 100 to 300 nM.

Molecule Cc1nn([C@H]2CCN(C)C2)cc1Nc1ncc(Br)c(NCCCN2CCCCC2=O)n1 [Example 61] has an IC50 [1] of 100 to 500 nM, an IC50 [2] of 100 to 300 nM and an IC50 [3] of 10 to 100 nM.

With Cc1nn([C@@H]2CCN(C)C2)cc1Nc1ncc(C(F)(F)F)c(NCCCN2CCCOCC2=O)n1 [Example 106] the IC50 [1] was 100 to 500 nM, the IC50 [2] was 100 to 300 nM and the IC50 [3] was 10 to 100 nM.

Work on Cc1nn(C2CCN(C)CC2)cc1Nc1ncc(C(F)(F)F)c(NCCCN2CCCCC2=O)n1 [Example 8] yielded an IC50 [1] of 25 to 100 nM and an IC50 [2] of 10 to 100 nM.

In the case of Cc1nn(C2CCN(C(C)C)CC2)cc1Nc1ncc(C(F)(F)F)c(NCCCN2CCOCCC2=O)n1 [Example 131], the IC50 [1] is reported as over 500 nM, the IC50 [2] is reported as 300 to 600 nM and the IC50 [3] is reported as 100 to 300 nM.

Work on Cc1nn(C2CCN(C(C)C)CC2)cc1Nc1ncc(C(F)(F)F)c(NCCCN2CCCOC2=O)n1 [Example 68] yielded an IC50 [1] of 100 to 500 nM, an IC50 [2] of 300 to 600 nM and an IC50 [3] of 10 to 100 nM.

In the case of CCc1nn(C2CCN(C)CC2)cc1Nc1ncc(Br)c(NCCCN2CCCCC2=O)n1 [Example 53], the IC50 [1] is reported as 100 to 500 nM, the IC50 [2] is reported as 100 to 300 nM and the IC50 [3] is reported as 10 to 100 nM.

With CCN1CCC(n2cc(Nc3ncc(C(F)(F)F)c(NCCCN4CCCOCC4=O)n3)c(C)n2)CC1 [Example 107] the IC50 [1] was 100 to 500 nM, the IC50 [2] was 100 to 300 nM and the IC50 [3] was 10 to 100 nM.

Cc1nn(C2CCN(C(C)C)CC2)cc1Nc1ncc(C(F)(F)F)c(NCCCN2CCCCC2=O)n1 [Example 15] was tested, and the IC50 [1] was 100 to 500 nM, the IC50 [2] was 10 to 100 nM and the IC50 [3] was 10 to 100 nM.

Cc1nn(CCN(C)C)cc1Nc1ncc(C(F)(F)F)c(NCCCN2CCCCC2=O)n1 [Example 21] showed an IC50 [1] of 100 to 500 nM, an IC50 [2] of 300 to 600 nM and an IC50 [3] of 100 to 300 nM.

Work on CCN1CCC(n2cc(Nc3ncc(C(F)(F)F)c(NCCCN4CCOCCC4=O)n3)c(C)n2)CC1 [Example 130] yielded an IC50 [1] of 100 to 500 nM, an IC50 [2] of 100 to 300 nM and an IC50 [3] of 10 to 100 nM.

Work on CCN1CC[C@H](n2cc(Nc3ncc(Br)c(NCCCN4CCCCC4=O)n3)c(C)n2)C1 [Example 64] yielded an IC50 [1] of over 500 nM and an IC50 [2] of 100 to 300 nM.
